A compilation of properties of binary mixtures (doi:10.1007/s10953-016-0518-2)

Assay: xn = mol fraction of the nth substance listed
Details: 101 kPa

OCCO + CC[n+]1ccn(C)c1.F[B-](F)(F)F
x2 = 0
Details	viscosity [mPa·s]
303.15 K	13.8
313.15 K	9.62
323.15 K	6.92

CC[n+]1ccn(C)c1.F[B-](F)(F)F + OCCO
viscosity [mPa·s]
Details	x1 = 0.0993	x1 = 0.2001	x1 = 0.3023	x1 = 0.4011	x1 = 0.5003	x1 = 0.598	x1 = 0.7003	x1 = 0.7997	x1 = 0.8997	x1 = 1
303.15 K	10.5	9.63	9.5	–	10.6	11.9	14	16.9	21.4	28
313.15 K	7.54	6.96	6.97	–	7.91	8.98	10.5	12.7	15.9	20.4
323.15 K	5.57	5.22	5.3	5.63	6.21	7.05	8.29	9.9	12.3	15.3
333.15 K	–	–	4.2	4.51	5.02	5.7	6.7	8.07	9.7	12.1
